Results from US20260365628A1, “SUBSTITUTED 3,4-DIHYDROQUINOLINONE INHIBITORS OF TSHR” (Septerna, Inc., priority 2022, published 2026).

Target: T1, hTSHR (Homo sapiens, UniProt P16473)
T1 construct: expressed in transfected cells
Test: hTSHR TR-FRET cAMP Assay (inhibition of M22-stimulated cAMP production)
Type: cell-based
Conditions: Expi293F Inducible cells stably expressing hTSHR; cAMP HTRF; stimulated with EC80 of anti-TSHR antibody M22; 15 min compound preincubation, 30 min at 37° C.; read-out: Activity (IC50 bins)
In short: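 Readout was a cAMP HTRF ratio of 655/620 nm after lysis, scaled between the EC80 M22 signal (0% inhibition) and no-agonist vehicle (100%). Frozen induced Expi293F-hTSHR cells saw test compounds (0.5% DMSO) for 15 min at 37 °C before 30 min of M22 stimulation at EC80.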

T1 sequence (P16473 21-764): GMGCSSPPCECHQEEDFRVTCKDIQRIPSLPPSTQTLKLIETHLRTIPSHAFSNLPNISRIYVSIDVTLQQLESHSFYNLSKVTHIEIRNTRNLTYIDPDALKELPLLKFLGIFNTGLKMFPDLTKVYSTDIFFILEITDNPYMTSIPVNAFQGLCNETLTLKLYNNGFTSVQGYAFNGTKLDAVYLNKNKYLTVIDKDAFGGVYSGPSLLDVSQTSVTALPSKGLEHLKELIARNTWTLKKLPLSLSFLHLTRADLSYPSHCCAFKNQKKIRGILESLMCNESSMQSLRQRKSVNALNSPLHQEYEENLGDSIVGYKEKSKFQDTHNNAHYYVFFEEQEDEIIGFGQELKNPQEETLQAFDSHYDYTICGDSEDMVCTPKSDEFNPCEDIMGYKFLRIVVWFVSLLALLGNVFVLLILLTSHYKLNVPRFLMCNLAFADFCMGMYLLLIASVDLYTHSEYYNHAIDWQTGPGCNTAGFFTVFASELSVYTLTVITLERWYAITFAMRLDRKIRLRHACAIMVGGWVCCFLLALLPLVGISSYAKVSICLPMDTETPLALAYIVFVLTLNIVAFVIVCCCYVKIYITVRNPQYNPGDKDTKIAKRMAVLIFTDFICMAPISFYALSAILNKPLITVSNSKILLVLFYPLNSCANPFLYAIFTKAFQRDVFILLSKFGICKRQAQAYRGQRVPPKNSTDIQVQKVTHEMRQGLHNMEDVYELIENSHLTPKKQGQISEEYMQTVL

SMILES | IC50 [µM]
CC[C@H]1Oc2cc(NC(=O)NC(C)(C)C)ccc2N(Cc2ccccc2)C1=O [Example 277, (R)-1-(4-benzyl-2-ethyl-3-oxo-3,4-dihydro-2H-benzo[b][1,4]oxazin-7-yl)-3-(tert-butyl)urea] | > 1
CC[C@@H]1Oc2cc(NC(=O)NC(C)(C)C)ccc2N(Cc2ccccc2)C1=O [Example 278, (S)-1-(4-benzyl-2-ethyl-3-oxo-3,4-dihydro-2H-benzo[b][1,4]oxazin-7-yl)-3-(tert-butyl)urea] | > 1
CC(C)(C)NC(=O)Nc1ccc2c(c1C#N)CCC(=O)N2Cc1ccccc1 [Example 279, 1-(1-benzyl-5-cyano-2-oxo-1,2,3,4-tetrahydroquinolin-6-yl)-3-(tert-butyl)urea] | > 1
C[C@H]1Oc2nc(NC(=O)NC(C)(C)C)ccc2N(Cc2ccccc2)C1=O [Example 280, (R)-1-(1-benzyl-3-methyl-2-oxo-2,3-dihydro-1H-pyrido[2,3-b][1,4]oxazin-6-yl)-3-(tert-butyl)urea] | 0.1 to 1
O=C(Nc1ccccc1)Nc1ccc2c(c1)CCC(=O)N2Cc1ccccc1 [Example 284, 3-(1-benzyl-2-oxo-3,4-dihydroquinolin-6-yl)-1-phenylurea] | > 1
CC(C)(C)CC(=O)Nc1ccc2c(c1)CCC(=O)N2Cc1ccccc1 [Example 285, N-(1-benzyl-2-oxo-3,4-dihydroquinolin-6-yl)-3,3-dimethylbutanamide] | > 1
COC[C@@H]1Oc2cc(NC(=O)NC(C)(C)C)ccc2N(Cc2ccccc2)C1=O [Example 288, (S)-1-(4-benzyl-2-(methoxymethyl)-3-oxo-3,4-dihydro-2H-benzo[b][1,4]oxazin-7-yl)-3-(tert-butyl)urea] | > 1
COC[C@H]1Oc2cc(NC(=O)NC(C)(C)C)ccc2N(Cc2ccccc2)C1=O [Example 289, (R)-1-(4-benzyl-2-(methoxymethyl)-3-oxo-3,4-dihydro-2H-benzo[b][1,4]oxazin-7-yl)-3-(tert-butyl)urea] | > 1
CC(C)(C)NC(=O)Nc1ccc2c(c1)OC(C)(C)C(=O)N2Cc1ccccc1 [Example 292, 1-(4-benzyl-2,2-dimethyl-3-oxo-3,4-dihydro-2H-benzo[b][1,4]oxazin-7-yl)-3-(tert-butyl)urea] | > 1
CC(c1cc(Cl)ccc1C#N)N1C(=O)COc2cc(NC(=O)NC(C)(C)C)ccc21 (stereo not drawn) [Example 293, 1-(tert-butyl)-3-(4-(1-(5-chloro-2-cyanophenyl)ethyl)-3-oxo-3,4-dihydro-2H-benzo[b][1,4]oxazin-7-yl)urea] | > 1
CC(C)(C)NC(=O)Nc1ccc2c(c1)nc(N)c(=O)n2Cc1ccccc1 [Example 294, 1-(3-amino-1-benzyl-2-oxo-1,2-dihydroquinoxalin-6-yl)-3-(tert-butyl)urea] | > 1
CCc1nc2cc(NC(=O)NC(C)(C)C)ccc2n(Cc2cccc(OC(F)(F)F)c2)c1=O [Example 295, 1-(tert-butyl)-3-(3-ethyl-2-oxo-1-(3-(trifluoromethoxy)benzyl)-1,2-dihydroquinoxalin-6-yl)urea] | > 1
CC(C)(C)NC(=O)Nc1ccc2c(c1)OCC(=O)N2C(c1ccccc1)C(F)(F)F (stereo not drawn) [Example 296, 1-(tert-butyl)-3-(3-oxo-4-(2,2,2-trifluoro-1-phenylethyl)-3,4-dihydro-2H-benzo[b][1,4]oxazin-7-yl)urea] | 0.1 to 1
CC(C)(C)NC(=O)Nc1ccc2c(c1)CCC(=O)N2C1CCOc2ccccc21 (stereo not drawn) [Example 298, 1-(tert-butyl)-3-(1-(chroman-4-yl)-2-oxo-1,2,3,4-tetrahydroquinolin-6-yl)urea] | > 1
C[C@@H](c1cccc(C(F)(F)F)n1)n1c(=O)cnc2cc(NC(=O)CCc3cccc(C(F)(F)F)c3)ccc21 [Example 299, (S)—N-(2-oxo-1-(1-(6-(trifluoromethyl)pyridin-2-yl)ethyl)-1,2-dihydroquinoxalin-6-yl)-3-(3-(trifluoromethyl)phenyl)propanamide] | 0.1 to 1
C[C@@H](c1cccc(C(F)(F)F)n1)n1c(=O)cnc2cc(NC(=O)CCC(C)(C)C)ccc21 [Example 300, (S)-4,4-dimethyl-N-(2-oxo-1-(1-(6-(trifluoromethyl)pyridin-2-yl)ethyl)-1,2-dihydroquinoxalin-6-yl)pentanamide] | 0.1 to 1
CC(C)(C)NC(=O)Nc1ccc2c(c1)CC(C(F)(F)F)C(=O)N2Cc1ccccc1 (stereo not drawn) [Example 301, 1-(1-benzyl-2-oxo-3-(trifluoromethyl)-1,2,3,4-tetrahydroquinolin-6-yl)-3-(tert-butyl)urea] | > 1
CC(C)(C)NC(=O)Nc1ccc2c(c1)CNC(=O)N2Cc1ccccc1 [Example 302, 1-(1-benzyl-2-oxo-1,2,3,4-tetrahydroquinazolin-6-yl)-3-(tert-butyl)urea] | > 1
C[C@H]1Oc2cc(NC(=O)OC3CCCC3)ccc2N([C@@H](C)c2ccccc2)C1=O [Example 303, cyclopentyl ((R)-2-methyl-3-oxo-4-((S)-1-phenylethyl)-3,4-dihydro-2H-benzo[b][1,4]oxazin-7-yl)carbamate] | < 0.1

Now from value to compound:

IC50 [µM] | SMILES
0.1 to 1 | CC(C)(C)NC(=O)Nc1ccc2c(n1)CCC(=O)N2Cc1cccc(Cl)c1 [Example 281, 1-(tert-butyl)-3-(5-(3-chlorobenzyl)-6-oxo-5,6,7,8-tetrahydro-1,5-naphthyridin-2-yl)urea]
0.1 to 1 | C[C@@H](c1cccc(C(F)(F)F)c1)N1C(=O)CCc2nc(NC(=O)NC(C)(C)C)ccc21 [Example 282, (S)-1-(tert-butyl)-3-(6-oxo-5-(1-(3-(trifluoromethyl)phenyl)ethyl)-5,6,7,8-tetrahydro-1,5-naphthyridin-2-yl)urea]
> 1 | C[C@H](c1cccc(C(F)(F)F)c1)N1C(=O)CCc2nc(NC(=O)NC(C)(C)C)ccc21 [Example 283, (R)-1-(tert-butyl)-3-(6-oxo-5-(1-(3-(trifluoromethyl)phenyl)ethyl)-5,6,7,8-tetrahydro-1,5-naphthyridin-2-yl)urea]
> 1 | C[C@@H]1Oc2nc(NC(=O)NC(C)(C)C)ccc2N(Cc2cccc(Cl)c2)C1=O [Example 286, (S)-1-(tert-butyl)-3-(1-(3-chlorobenzyl)-3-methyl-2-oxo-2,3-dihydro-1H-pyrido[2,3-b][1,4]oxazin-6-yl)urea]
0.1 to 1 | C[C@H]1Oc2nc(NC(=O)NC(C)(C)C)ccc2N(Cc2cccc(Cl)c2)C1=O [Example 287, (R)-1-(tert-butyl)-3-(1-(3-chlorobenzyl)-3-methyl-2-oxo-2,3-dihydro-1H-pyrido[2,3-b][1,4]oxazin-6-yl)urea]
> 1 | C[C@@H](c1cccc(Cl)c1)N1C(=O)CCc2nc(NC(=O)NC(C)(C)C)ccc21 [Example 290, (S)-1-(tert-butyl)-3-(5-(1-(3-chlorophenyl)ethyl)-6-oxo-5,6,7,8-tetrahydro-1,5-naphthyridin-2-yl)urea]
0.1 to 1 | C[C@H](c1cccc(Cl)c1)N1C(=O)CCc2nc(NC(=O)NC(C)(C)C)ccc21 [Example 291, (R)-1-(tert-butyl)-3-(5-(1-(3-chlorophenyl)ethyl)-6-oxo-5,6,7,8-tetrahydro-1,5-naphthyridin-2-yl)urea]
0.1 to 1 | COc1cccc([C@H](C)N2C(=O)CCc3cc(NC(=O)NC(C)(C)C)ccc32)c1 [Example 297, (S)-1-(tert-butyl)-3-(1-(1-(3-methoxyphenyl)ethyl)-2-oxo-1,2,3,4-tetrahydroquinolin-6-yl)urea]
